Source: publication PMC10415282, “High resolution cryo-EM and crystallographic snapshots of the actinobacterial two-in-one 2-oxoglutarate dehydrogenase” (Nature Communications, 2023)

Assays:
MsKGD-GarA complex = target: T1, MsKGD-GarA complex (Mycolicibacterium smegmatis, UniProt A0R2B1); assay: crystal structure, […] Å; format: binding; details: Mg2+; 2 mM ThDP, 5 mM MgCl2, pH 8.0; GarA bound, resting conformation
T1 construct: gene kgd; with Glycogen accumulation regulator GarA

OdhA [1] = target: T2, OdhA (Corynebacterium glutamicum, UniProt Q8NRC3); assay: cryo-EM structure, […] Å; format: binding; details: E2o active site, out conformation; ThDP-Mg and acetyl-CoA also bound
T2 construct: full length residues 1-1221, E. coli BL21(DE3), N-terminal His6-TEV tag cleaved for cryo-EM (OdhA-His6 kept for SPR); homohexamer, ~800 kDa

OdhAΔ97 = target: T3, OdhAΔ97 (Corynebacterium glutamicum, UniProt Q8NRC3); assay: crystal structure, […] Å; format: binding; details: co-crystallised with 5 mM CoASH, pH 7.5; E2o acceptor site; pantothenate chain not traced
T3 construct: gene odhA; N-terminal truncation, residues 98-1221, E. coli BL21(DE3), His6-TEV tag cleaved; homohexamer

OdhA [2] = target: T2, OdhA; assay: cryo-EM structure, […] Å; format: binding; details: E2o active site; ThDP-Mg and acetyl-CoA also bound
[3] = target: T4, Corynebacterium glutamicum OdhA, full-length (residues 1-1221) (Corynebacterium glutamicum ATCC13032, UniProt Q8NRC3 1-1221); assay: cryo-EM structure; single particle, OdhA incubated with OdhI at molar ratio 1:10, then SEC (Superose 6 increase, 20 mM Hepes pH 7.5, 500 mM NaCl); D3 symmetry; 2.3 Å; details: both partners purified
T4 construct: OdhA (E2o succinyltransferase and E1o 2-oxoglutarate decarboxylase domains on one chain), C. glutamicum ATCC13032, Uniprot Q8NRC3, residues 1-1221; TEV site (ENLYFQG) between the vector's His6-tag and the N-terminus; In the maps the chain is traced from Pro102; also called corynebacterial OdhA; source: E. coli BL21(DE3), purified (Ni-NTA, TEV cleavage, SEC); not shown: His6, N-terminal, cleaved
T4 sequence (looked up): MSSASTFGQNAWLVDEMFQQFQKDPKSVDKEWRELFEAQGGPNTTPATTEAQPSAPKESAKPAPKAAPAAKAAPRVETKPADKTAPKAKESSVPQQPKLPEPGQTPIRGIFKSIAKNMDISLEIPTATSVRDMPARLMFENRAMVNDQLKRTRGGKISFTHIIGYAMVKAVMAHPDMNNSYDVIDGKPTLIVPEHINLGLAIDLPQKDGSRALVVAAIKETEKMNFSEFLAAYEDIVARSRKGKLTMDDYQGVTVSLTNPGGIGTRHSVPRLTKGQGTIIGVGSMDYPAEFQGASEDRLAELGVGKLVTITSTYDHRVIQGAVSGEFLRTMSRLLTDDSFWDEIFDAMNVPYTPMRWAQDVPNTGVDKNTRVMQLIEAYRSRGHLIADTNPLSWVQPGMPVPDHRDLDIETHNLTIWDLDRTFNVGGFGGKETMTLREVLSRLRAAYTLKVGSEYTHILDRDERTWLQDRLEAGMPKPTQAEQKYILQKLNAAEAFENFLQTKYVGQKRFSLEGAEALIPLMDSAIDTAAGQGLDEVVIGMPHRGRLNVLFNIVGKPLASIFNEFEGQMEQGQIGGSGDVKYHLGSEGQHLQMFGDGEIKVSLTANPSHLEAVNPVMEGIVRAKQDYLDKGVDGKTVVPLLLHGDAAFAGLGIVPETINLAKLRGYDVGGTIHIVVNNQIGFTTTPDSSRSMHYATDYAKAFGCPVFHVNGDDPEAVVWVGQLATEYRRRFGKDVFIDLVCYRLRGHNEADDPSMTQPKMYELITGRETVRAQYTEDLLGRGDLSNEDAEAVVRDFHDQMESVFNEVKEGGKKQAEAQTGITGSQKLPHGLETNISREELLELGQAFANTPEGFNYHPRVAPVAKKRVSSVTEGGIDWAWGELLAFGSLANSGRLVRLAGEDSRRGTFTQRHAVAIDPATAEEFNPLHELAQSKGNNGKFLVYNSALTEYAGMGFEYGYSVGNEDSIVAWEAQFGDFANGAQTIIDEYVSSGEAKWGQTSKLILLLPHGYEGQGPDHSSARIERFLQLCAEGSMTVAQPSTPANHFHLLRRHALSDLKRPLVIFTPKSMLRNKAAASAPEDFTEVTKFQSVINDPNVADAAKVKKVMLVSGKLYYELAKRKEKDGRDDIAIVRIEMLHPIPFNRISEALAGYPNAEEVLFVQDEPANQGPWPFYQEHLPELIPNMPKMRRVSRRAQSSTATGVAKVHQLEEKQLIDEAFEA

Cc1ncc(C[n+]2csc(CCOP(=O)(O)OP(=O)(O)O)c2C)c(N)n1 [ThDP]
crystal structure, 4.6 Å (MsKGD-GarA complex): The E1o dimers containing the Mg-ThDP compose the blades

CC(C)(COP(=O)(O)OP(=O)(O)OC[C@H]1O[C@@H](n2cnc3c(N)ncnc32)[C@H](O)[C@@H]1OP(=O)(O)O)[C@@H](O)C(=O)NCCC(=O)NCCS [CoASH]
cryo-EM structure, 2.2 Å (OdhA [1]): the OdhA-CoASH complex shows the bound CoASH with the pantothenate chain not entering | crystal structure, 2.46 Å (OdhAΔ97): we could model CoASH, which was added to the cocrystallization mixture, as bound

CC(C)(COP(=O)(O)OP(=O)(O)OC[C@H]1O[C@@H](n2cnc3c(N)ncnc32)[C@H](O)[C@@H]1OP(=O)(O)O)[C@@H](O)C(=O)NCCC(=O)NCCSC(=O)CCC(=O)O [succinyl-CoA]
cryo-EM structure, 2.1 Å (OdhA [2]): succinyl-CoA binds to the same domain with its 2-phosphoadenosine moiety superimposable

B1: Corynebacterium glutamicum OdhI (residues 1-143) (natural protein, Corynebacterium glutamicum ATCC13032, UniProt Q8NQJ3 1-143, looked up)
chain: MSDNNGTPEPQVETTSVFRADLLKEMESSTGTAPASTGAENLPAGSALLVVKRGPNAGARFLLDQPTTTAGRHPESDIFLDDVTVSRRHAEFRINEGEFEVVDVGSLNGTYVNREPRNAQVMQTGDEIQIGKFRLVFLAGPAE
notes: In the map only the FHA domain (Glu40-Ala142) is traceable; source: E. coli BL21(DE3), purified (Ni-NTA, TEV cleavage, SEC); not shown: His6, N-terminal, cleaved
stoichiometry N [3]: 1
